Entries after “also recorded” stand apart in the source; their conditions may differ.
Columns and labels:
unprenylated RAP1A = experiment: Western blot of unprenylated RAP1A in cancer lines; assay type: cell-based, human and murine; conditions: Zol (1 μM) for 72 h
Protocol: (A) A representative example of western blot analysis of human mesenchymal stem cells (MSC) and human and murine prostate cancer cell lines (human: PC3, murine 178-2 BMA), human breast cancer cell line (MDA-MB231), murine multiple myeloma cancer lines (5TGM1 and 5T33) cultured in presence or absence of Zol (1 μM) for 72 h and assessed for the expression of unprenylated RAP1A and GAPDH.
Protein lysates (50 μg) were diluted in equal volume of 2× Laemmli buffer (Gibco) containing Dithiothreitol (DTT, Sigma,UK). The samples were heated at 95° C. for 5 minutes and loaded on a 12% Tris-glycine gel. After electro-blotting, membranes were blocked with 5% Bovine serum albumin (BSA) in 0.1% Tween 20 in PBS (PBS-T) for detection of glyceraldehyde-3-phosphate dehydrogenase (GAPDH) and 5% dry milk in PBS-T for detection of unprenylated RAP1A (Santacruz Biotechnology, Santa Cruz, USA). In case of P-AKT, P-70S6K membranes were blocked with 5%BSA in 1× tris buffered saline and 0.1% tween-20 (TBS-T), where for AKT and P70S6K membranes were blocked with 5% dry milk in TBS-T. All membranes were blocked for 2 hours at room temperature. […] Detection was carried out using enhanced chemi-luminescence plus ECL reaction kit (GE Healthcare, Buckinghamshire, UK) and quantification of protein expression was carried out using image J software.

[1] = system: human mesenchymal stem cells (hMSC); experiment: Immunostaining of γH2AX DNA damage foci (double stranded breaks) in hMSC; assay type: cell-based
Protocol: DNA damage was induced by exposing hMSC to ^137Cs Gamma source. Cells were washed with PBS and fixed with 4% Para-formaldehyde for […]. Cells were then washed with PBS permeabilized with 0.5% Triton-X (Sigma, UK) for […] and blocked with 5% normal goat serum (DAKO, Glostrup, Denmark) in PBS for 1 hr. This was followed by incubation with primary antibody, anti-phospho histone H2AX (Ser139) (Millipore, Massachusetts, USA) used at 1:800 in 5% normal goat serum, overnight at 4° C. Cells were then washed in PBS and incubated in secondary Anti mouse IgG Fluorescein Isothiocyanate (FITC) conjugated (Insight Biotechnology, Santa Cruz, USA) at 1:200 in PBS for 1 hour at room temperature. The cover-slips were mounted on slides with mounting media (VectaShield) containing 4',6-diamidino-2-phenylindole (DAPI) to stain the nuclei. […] Cells were viewed using in an Inverted Zeiss LSM 510 NLO microscope equipped with Argon (Ar) laser (488 nm) 30 mW to image the fluorescent marker FITC and UV lamp to image DAPI stained nuclei. Five to seven fields consisting of 25 cells in total were randomly selected from a tile scan (20×) and individual cells viewed at 63× were then scored for γH2AX DNA damage foci using ImageJ 1.45 software (http://rsbweb.nih.gov/ij/). One of the factors affecting cellular lifespan is accumulation of DNA damage.

[2] = system: intestinal crypt and villi; experiment: Murine intestine regeneration following irradiation; assay type: in vivo, C57BL6/J mice; conditions: Zol 125 μg/kg i.p. 3 days prior to 9Gy
Protocol: Mice (C57BL6/J) were injected with either Zoledronate (single dose, i.p.,125 μg/kg) or PBS. On day 3 post-injection, Mice were exosed to whole body irradiation (9Gy; n=3/group) using 137Cs Gamma source. Within 24 hours from irradiation systemic bone marrow transplantation was performed to prevent myelotoxicity. mice were sacrificed 4 days post-irradiation for histological analysis of
Intestinal tissue. At the time of harvest this was divided with a scalpel into duodenum, ileum-jejunum, colon and rectum, and each region was further cut into 0.5 cm pieces that were placed in histological cassettes and stored in 70% ethanol prior to embedding. Tissues were paraffin embedded and sectioned at 3-5 μm thickness and mounted onto […] coated glass microscope slides. The slides were de-waxed in xylene (BDH, Leister, UK) and rehydrated by passing through a series of ethanol dilutions. The nuclei were stained by placing in Gill's haematoxylin (Sigma, Poole, UK), washed with water followed by staining of cytoplasm in alcoholic eosin (Sigma, Poole, UK) and washed. Slides were dehydrated through a series of graded alcohols and cleared in xylene for 3 minutes prior to mounting with DPX and coverslip to examine under microscope. Stained tissue sections were scanned on the Aperio Slide Scanner (Leica Biosystems, Newcastle, UK). To obtain villi length and crypt depth, images were analysed on the Aperio ImageScope Software (v11.2.0.780) and using the ruler tool, measurements were taken on a surface of 0.525 mm^2 at 3 different levels.

[3] = system: zebrafish embryo caudal fin; experiment: Zebrafish tail amputation and regeneration following irradiation; assay type: in vivo, Zebrafish (Danio Rerio H)
Protocol: Embryos from wild-type Zebrafish (Danio Rerio H) AB strain were collected at 16 cell stage (˜1.5 hours post fertilisation (hpf)) and grown in E3 Medium at 28° C. Embryos were treated with Zoledronate (1 μM) and/or FOH, GGOH at 24 hpf. DNA damage was induced by exposure to ^137Cs Gamma source at 48 hpf and after irradiation the embryo tails were amputated and the embryos were then incubated at 28° C. for a further 12 hrs in the presence of the chemicals. At the end of this period the chemicals were washed off and the embryos were incubated in fresh medium with no chemicals. The embryos were grown up to 120 hpf, following which they were fixed in 4% PFA overnight and then mounted in 100% glycerol. The tail lengths of embryos were measured taking the anal region as starting reference point and the end of the fin fold as the ending point of measurement.

[4] = assessed 4 days later, n=3/group

In the case of `O=P(O)(O)C(O)(Cn1ccnc1)P(=O)(O)O` [Zoledronate], the “mevalonate pathway (unprenylated RAP1A)” value (unprenylated RAP1A) is reported as “inhibition of mevalonate pathway”, the “DNA repair (γH2AX DNA damage foci), FIG. 9” value ([1]; 1 μM, 4 hours after irradiation, Compound C compared with Zol) is reported as “significant decrease” and the “number of γH2AX DNA damage foci after irradiation” value ([1]; 1Gy irradiation, compound at 1 μM, foci at 4 h (Zol also 12, 24 h) versus PBS, listed as Zol) is reported as “significant decrease; also recorded: significant reduction”. The “number of γH2AX DNA damage foci after irradiation” value ([1]; 3 and 5Gy irradiation (data not shown)) was “significant decrease”, the “number of γH2AX DNA damage foci, dose response” value ([1]; increasing dosing with Zol) was “reduced number of DNA damage foci” and the “incidence of DNA damage foci with passage” value ([1]; passage 3 (early) and p10 (late), no irradiation, listed as Zol) was “significantly higher in untreated hMSC; also recorded: reduced”. The “protection of intestinal crypt and villi following irradiation” value [2] was “protects intestinal crypt and villi”, the intestinal crypt depth [2, 4] was “improved” and the villi length [2, 4] was “improved”. The “regeneration of the caudal fin at 120 hpf” value (from here on “regeneration”) ([3]; 1Gy irradiation, Zol 1 μM, FIG. 6) was “enhances tail regeneration”, the “regeneration” value ([3]; 1 and 3 Gy irradiation (data not shown)) was “same outcome” and the “regeneration” value ([3]; 5 Gy irradiation, Zol 1 μM, n=15/group) was “enhances tail regeneration”. For the same compound, the “regeneration” value ([3]; 5 Gy irradiation, Zol 1 μM, n=15/group, listed as Zol) was “rescued”.
